Test results as given in patent US7385026B1, “Modified ghrelin polypeptides” (priority 1999, dated 2008).
Values joined by “and” are separate entries in the source; they are usually repeats but may differ in a detail not shown here. Equal values may be shown once. Read-outs that look alike come from different tables or passages of the source. Each block holds one molecule with its values, some of them ahead of it. Square brackets hold non-standard residues; d marks the D form. Peptide text beside a SMILES is read from it. * marks the point of attachment. d2Nal = N[C@H](Cc1ccc2ccccc2c1)C(=O)O; Octanoyl = CCCCCCCC(=O)*; Aib = CC(C)(N)C(=O)O

Assays:
rat GHS-receptor (GHR-R) = biological target: T1, rat GHS-receptor (GHR-R) (Rattus norvegicus, UniProt O08725); test: Ca-releasing activity (increase in intracellular calcium) in CHO-GHSR62 cells, FLIPR; format: cell-based
T1 construct: A full-length cDNA for rat GHR-R was obtained by RT-PCR; expressed in transfected cells
Outline: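 CHO cells stably expressing full-length rat GHS-R (CHO-GHSR62) were cultured 12–15 h, loaded with 4 μM Fluo4 for 1 h and washed with Hank's BSS containing 20 mM Hepes and 2.5 mM probenecid. Ca-releasing activity of ghrelin peptides, fragments or derivatives was read by FLIPR as the fluorescence change after sample addition.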

IGS-SD strain rats = test: GH-releasing activity of long-chain ghrelin derivatives in rat (plasma GH 15 min after i.v.); format: in vivo; settings: for GH level in plasma in 15 min. after administration, M ± S.D.: n=3; for GH level in plasma in 15 min. after administration, individual rats (Rat 1-3): rats under Nembutal; for GH-releasing activity (in words): i.v., plasma GH at 15 minutes
Experimental: Fifteen minutes after administration, plasma was collected, and the concentration of GH in plasma was measured by radioimmunoassay (Biotrak/Amersham). Separately, 0.2% bovine serum albumin (BSA)-physiological saline, 6 nmol/kg rGhrelin and hGhrelin, or 80 nmol/kg Ipamorelin (Compound 80) was administered into other rats as the control, respectively, and the concentrations of GH in plasma in 15 minutes after administration were compared (for each sample, n=3).

[1] = test system: amino-terminal antibody (anti-[C-Cys]-rat ghrelin [1-11] antigen); test: Radioimmunoassay: inhibition of binding of labeled rat ghrelin to amino-terminal antibody; parameters: species or system rabbit
[2] = CHO-GHSR62 cells (CHO cells expressing rat GHS receptor), FLIPR, read-out: Ca-releasing activity EC50

T1 sequence (O08725 whole entry): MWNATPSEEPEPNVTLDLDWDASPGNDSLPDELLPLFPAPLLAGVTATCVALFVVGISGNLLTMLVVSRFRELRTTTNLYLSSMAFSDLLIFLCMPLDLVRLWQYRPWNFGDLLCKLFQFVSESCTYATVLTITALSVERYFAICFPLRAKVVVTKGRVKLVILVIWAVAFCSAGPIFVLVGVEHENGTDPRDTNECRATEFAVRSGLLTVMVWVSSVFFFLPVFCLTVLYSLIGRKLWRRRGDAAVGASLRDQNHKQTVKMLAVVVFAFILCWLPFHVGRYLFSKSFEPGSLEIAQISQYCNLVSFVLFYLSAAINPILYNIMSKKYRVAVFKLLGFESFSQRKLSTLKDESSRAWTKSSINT

- EC50 (rat GHS-receptor (GHR-R); [2]): 1.4 nM
SMILES: CC(C)C[C@H](NC(=O)[C@H](CCCCN)NC(=O)[C@H](C)NC(=O)[C@@H]1CCCN1C(=O)[C@@H]1CCCN1C(=O)[C@H](CCCCN)NC(=O)[C@H](CCCCN)NC(=O)[C@H](CO)NC(=O)[C@H](CCC(=O)O)NC(=O)[C@H](CCCCN)NC(=O)[C@H](CCCNC(=N)N)NC(=O)[C@H](CCC(N)=O)NC(=O)[C@H](CCC(N)=O)NC(=O)[C@@H](NC(=O)[C@H](CCCNC(=N)N)NC(=O)[C@H](CCC(N)=O)NC(=O)[C@H](Cc1c[nH]cn1)NC(=O)[C@H](CCC(=O)O)NC(=O)[C@@H]1CCCN1C(=O)[C@H](CO)NC(=O)[C@H](CC(C)C)NC(=O)[C@H](Cc1ccccc1)NC(=O)[C@H](COC(=O)CCc1ccccc1)NC(=O)[C@H](CO)NC(=O)CN)C(C)C)C(=O)N[C@@H](CCC(N)=O)C(=O)N1CCC[C@H]1C(=O)N[C@@H](CCCNC(=N)N)C(=O)O [Compound 15, [Ser^3(3-Phenylpropionyl)]-hGhrelin]
- GH level in plasma in 15 min. after administration, M ± S.D. (IGS-SD strain rats; dose 18 nmol/kg i.v.): 1926 ± 299 ng/mL
- GH level in plasma in 15 min. after administration, individual rats (Rat 1-3) (IGS-SD strain rats; dose 18 nmol/kg i.v., listed as [Ser^3(Phenylpropionyl)]-hGhrelin): 2119 ng/mL and 2078 ng/mL and 1581 ng/mL
- GH-releasing activity (in words) (IGS-SD strain rats): strong GH-releasing activity

- EC50 (rat GHS-receptor (GHR-R); [2]): 2.5 nM
SMILES: CC(C)(N)C(=O)N[C@@H](Cc1c[nH]cn1)C(=O)N[C@H](Cc1ccc2ccccc2c1)C(=O)N[C@H](Cc1ccccc1)C(=O)N[C@@H](CCCCN)C(N)=O [Compound 80, [Aib^1, His^2, ^DNal^3, ^DPhe^4, Lys^5]-Ghrelin (1-5)-amide, reference compound] (H-[Aib]H[d2Nal][dF]K-NH2)
- GH level in plasma in 15 min. after administration, M ± S.D. (IGS-SD strain rats; dose 80 nmol/kg i.v.): 607 ± 503 ng/mL
- GH level in plasma in 15 min. after administration, individual rats (Rat 1-3) (IGS-SD strain rats; dose 80 nmol/kg i.v., listed as Ipamorelin): 377 ng/mL and 260 ng/mL and 1184 ng/mL

- EC50 (rat GHS-receptor (GHR-R); [2]): 1.7 nM
- EC50 (rat GHS-receptor (GHR-R); Table 3, Example 9: protease fragments or synthetic peptides, CHO-GHSR62 cells, read-out: Ca-releasing activity (EC50)): 2.6 nM
- cross-reactivity with the amino-terminal antibody [1]: 20%
SMILES: CCCCCCCCCC(=O)OC[C@H](NC(=O)[C@H](CO)NC(=O)CN)C(=O)N[C@@H](Cc1ccccc1)C(=O)N[C@@H](CC(C)C)C(=O)N[C@@H](CO)C(=O)N1CCC[C@H]1C(=O)N[C@@H](CCC(=O)O)C(=O)N[C@@H](Cc1c[nH]cn1)C(=O)N[C@@H](CCC(N)=O)C(=O)N[C@@H](CCCCN)C(=O)N[C@@H](C)C(=O)N[C@@H](CCC(N)=O)C(=O)N[C@@H](CCC(N)=O)C(=O)N[C@@H](CCCNC(=N)N)C(=O)N[C@@H](CCCCN)C(=O)N[C@@H](CCC(=O)O)C(=O)N[C@@H](CO)C(=O)N[C@@H](CCCCN)C(=O)N[C@@H](CCCCN)C(=O)N1CCC[C@H]1C(=O)N1CCC[C@H]1C(=O)N[C@@H](C)C(=O)N[C@@H](CCCCN)C(=O)N[C@@H](CC(C)C)C(=O)N[C@@H](CCC(N)=O)C(=O)N1CCC[C@H]1C(=O)N[C@@H](CCCNC(=N)N)C(=O)O [Compound 12, [Ser^3(Decanoyl)]-rGhrelin]

- EC50 (rat GHS-receptor (GHR-R); [2]): 8.2 nM
SMILES: CC(C)C[C@H](NC(=O)[C@H](CCCCN)NC(=O)[C@H](C)NC(=O)[C@@H]1CCCN1C(=O)[C@@H]1CCCN1C(=O)[C@H](CCCCN)NC(=O)[C@H](CCCCN)NC(=O)[C@H](CO)NC(=O)[C@H](CCC(=O)O)NC(=O)[C@H](CCCCN)NC(=O)[C@H](CCCNC(=N)N)NC(=O)[C@H](CCC(N)=O)NC(=O)[C@H](CCC(N)=O)NC(=O)[C@@H](NC(=O)[C@H](CCCNC(=N)N)NC(=O)[C@H](CCC(N)=O)NC(=O)[C@H](Cc1c[nH]cn1)NC(=O)[C@H](CCC(=O)O)NC(=O)[C@@H]1CCCN1C(=O)[C@H](CO)NC(=O)[C@H](CC(C)C)NC(=O)[C@H](Cc1ccccc1)NC(=O)[C@H](Cc1ccc2ccccc2c1)NC(=O)[C@H](CO)NC(=O)CN)C(C)C)C(=O)N[C@@H](CCC(N)=O)C(=O)N1CCC[C@H]1C(=O)N[C@@H](CCCNC(=N)N)C(=O)O [Compound 65, [2-^LNal^3]-hGhrelin]
- GH level in plasma in 15 min. after administration, M ± S.D. (IGS-SD strain rats; dose 100 nmol/kg i.v.): 1524 ± 147 ng/mL
- GH level in plasma in 15 min. after administration, individual rats (Rat 1-3) (IGS-SD strain rats; dose 100 nmol/kg i.v.): 1637 ng/mL and 1576 ng/mL and 1357 ng/mL

- EC50 (rat GHS-receptor (GHR-R); [2]): 16 nM
- cross-reactivity with the amino-terminal antibody [1]: 0.3%
SMILES: CCCCCC(=O)OC[C@H](NC(=O)[C@H](CO)NC(=O)CN)C(=O)N[C@@H](Cc1ccccc1)C(=O)N[C@@H](CC(C)C)C(=O)N[C@@H](CO)C(=O)N1CCC[C@H]1C(=O)N[C@@H](CCC(=O)O)C(=O)N[C@@H](Cc1c[nH]cn1)C(=O)N[C@@H](CCC(N)=O)C(=O)N[C@@H](CCCCN)C(=O)N[C@@H](C)C(=O)N[C@@H](CCC(N)=O)C(=O)N[C@@H](CCC(N)=O)C(=O)N[C@@H](CCCNC(=N)N)C(=O)N[C@@H](CCCCN)C(=O)N[C@@H](CCC(=O)O)C(=O)N[C@@H](CO)C(=O)N[C@@H](CCCCN)C(=O)N[C@@H](CCCCN)C(=O)N1CCC[C@H]1C(=O)N1CCC[C@H]1C(=O)N[C@@H](C)C(=O)N[C@@H](CCCCN)C(=O)N[C@@H](CC(C)C)C(=O)N[C@@H](CCC(N)=O)C(=O)N1CCC[C@H]1C(=O)N[C@@H](CCCNC(=N)N)C(=O)O [Compound 11, [Ser^3(Hexanoyl)]-rGhrelin]

- EC50 (rat GHS-receptor (GHR-R); [2]): 1.2 nM
SMILES: CCCCCCCCOC[C@H](NC(=O)[C@H](CO)NC(=O)CN)C(=O)N[C@@H](Cc1ccccc1)C(=O)N[C@@H](CC(C)C)C(=O)N[C@@H](CO)C(=O)N1CCC[C@H]1C(=O)N[C@@H](CCC(=O)O)C(=O)N[C@@H](Cc1c[nH]cn1)C(=O)N[C@@H](CCC(N)=O)C(=O)N[C@@H](CCCNC(=N)N)C(=O)N[C@H](C(=O)N[C@@H](CCC(N)=O)C(=O)N[C@@H](CCC(N)=O)C(=O)N[C@@H](CCCNC(=N)N)C(=O)N[C@@H](CCCCN)C(=O)N[C@@H](CCC(=O)O)C(=O)N[C@@H](CO)C(=O)N[C@@H](CCCCN)C(=O)N[C@@H](CCCCN)C(=O)N1CCC[C@H]1C(=O)N1CCC[C@H]1C(=O)N[C@@H](C)C(=O)N[C@@H](CCCCN)C(=O)N[C@@H](CC(C)C)C(=O)N[C@@H](CCC(N)=O)C(=O)N1CCC[C@H]1C(=O)N[C@@H](CCCNC(=N)N)C(=O)O)C(C)C [Compound 17, [Ser^3(Octyl)]-hGhrelin]
- GH level in plasma in 15 min. after administration, M ± S.D. (IGS-SD strain rats; dose 18 nmol/kg i.v.): 1657 ± 75 ng/mL
- GH level in plasma in 15 min. after administration, individual rats (Rat 1-3) (IGS-SD strain rats; dose 18 nmol/kg i.v.): 1626 ng/mL and 1602 ng/mL and 1743 ng/mL
- GH-releasing activity (in words) (IGS-SD strain rats): strong GH-releasing activity

- EC50 (rat GHS-receptor (GHR-R); [2]): 31 nM
SMILES: CC(C)C[C@H](NC(=O)[C@H](CCCCN)NC(=O)[C@H](C)NC(=O)[C@@H]1CCCN1C(=O)[C@@H]1CCCN1C(=O)[C@H](CCCCN)NC(=O)[C@H](CCCCN)NC(=O)[C@H](CO)NC(=O)[C@H](CCC(=O)O)NC(=O)[C@H](CCCCN)NC(=O)[C@H](CCCNC(=N)N)NC(=O)[C@H](CCC(N)=O)NC(=O)[C@H](CCC(N)=O)NC(=O)[C@@H](NC(=O)[C@H](CCCNC(=N)N)NC(=O)[C@H](CCC(N)=O)NC(=O)[C@H](Cc1c[nH]cn1)NC(=O)[C@H](CCC(=O)O)NC(=O)[C@@H]1CCCN1C(=O)[C@H](CO)NC(=O)[C@H](CC(C)C)NC(=O)[C@H](Cc1ccccc1)NC(=O)[C@H](Cc1c[nH]c2ccccc12)NC(=O)[C@H](CO)NC(=O)CN)C(C)C)C(=O)N[C@@H](CCC(N)=O)C(=O)N1CCC[C@H]1C(=O)N[C@@H](CCCNC(=N)N)C(=O)O [Compound 62, [Trp^3]-hGhrelin]

- EC50 (rat GHS-receptor (GHR-R); [2]): 12 nM
SMILES: CCCCCCCC(=O)OC[C@H](NC(=O)[C@H](CO)NC(=O)CN)C(=O)N[C@@H](Cc1ccccc1)C(=O)N[C@@H](CC(C)C)C(=O)N[C@@H](CCCCN)C(N)=O [Compound 37, [Lys^6]-Ghrelin (1-6)-amide] (H-GSS(Octanoyl)FLK-NH2)
